# Like-named read-outs stand apart in the source and are kept apart here.
# Assays:
# [1] = Compound plasma concentration, LC-MS/MS, 8 h post dose; assay type: in vivo; details: 30 mg/kg; for Number of Mice with Plasma Concentration < LLOQ: mice below LLOQ / mice in group; for concentration at 8 h: male, C57BL/6, mouse, mice, plasma, read-out: Mean Example Plasma Concentration
# Experimental: (§1) Eight hours later, each mouse was heavily anesthetized with isoflurane, the peritoneal cavity was opened and the gallbladder, with its entire contents, was carefully excised and weighed. Blood was collected from the left ventricle of the heart and processed to plasma in EDTA-coated tubes containing aprotinin and DPPIV inhibitor for measurement of total GLP-1 (K150FCC; Meso Scales Discovery, Gaithersburg Md.).
# Plasma samples were treated with acetonitrile containing an internal standard, precipitated proteins removed by centrifugation. Supernatants were analyzed by LC-MS/MS and compound concentrations were determined by interpolated from a standard curve prepared in plasma.
# [2] = biological target: T1, endogenously expressed TGR5 in NCI H716 (Homo sapiens, UniProt Q8TDU6); assay: Cell-based TGR5 assay, NCI-H716 cells endogenously expressing human TGR5, cAMP by HTRF; details: 30 min at 37 C, 22 nM to 50 μM, read-out: pEC50 endogenously expressed TGR5 in NCI H716 (converted)
# T1 construct: human caecum carcinoma cell line NCI-H716 which endogenously expresses human TGR5; endogenous in cells; host or cells: NCI-H716
# T1 sequence (Q8TDU6 1-330): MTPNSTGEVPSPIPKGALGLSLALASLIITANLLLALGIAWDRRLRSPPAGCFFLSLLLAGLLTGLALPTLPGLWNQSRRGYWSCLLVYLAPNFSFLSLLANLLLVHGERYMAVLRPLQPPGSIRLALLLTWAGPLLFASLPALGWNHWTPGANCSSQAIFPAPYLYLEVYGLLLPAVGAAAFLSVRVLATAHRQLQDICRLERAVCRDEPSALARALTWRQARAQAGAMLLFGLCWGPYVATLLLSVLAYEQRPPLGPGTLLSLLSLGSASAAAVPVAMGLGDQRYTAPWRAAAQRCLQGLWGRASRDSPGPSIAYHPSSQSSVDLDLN
# How it was run: (§2)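 cAMP HTRF read-out, converted to concentration via standard curve, after a 30 min, 37 °C compound exposure in HBSS with 10 mM HEPES pH 7.4 and 0.5 mM IBMX, compounds serially diluted 3-fold from 10 mM DMSO stock then 100-fold. Cells: stable human TGR5 HEK293, or NCI-H716 expressing TGR5 endogenously.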
# human TGR5 = biological target: T2, human TGR5 (Homo sapiens, UniProt Q8TDU6); assay: Cell-based TGR5 assay, HEK293 cells stably expressing human TGR5, cAMP by HTRF; details: 0.05 nM to 10 μM
# T2 construct: expressed in transfected cells
# T2 sequence (Q8TDU6 1-330): T1 sequence (Q8TDU6 1-330)
# How it was run: as §2
# total GLP-1 = assay: In vivo GLP-1 secretion, plasma total GLP-1 8 h post dose; details: Mus musculus, C57BL/6 male mice, food removed, plasma total GLP-1 eight hours after dosing, read-out: GLP-1 fold change over vehicle, Mean
# Text: as §1
# [3] = Compound concentration in gall bladder, LC-MS/MS, 8 h post dose; assay type: in vivo; details: 30 mg/kg; for Number of Mice with Gallbladder Concentration < LLOQ: mice below LLOQ / mice in group; for concentration at 8 h: male, C57BL/6, mouse, with contents, mice, gallbladder homogenate, read-out: Mean Example Gallbladder Concentration
# Experimental: as §1
# Compound concentrations in the gall bladder were determined as follows: each mouse was heavily anesthetized with isoflurane, the peritoneal cavity was opened and the gallbladder, with its entire contents, was carefully excised. After harvest, gall bladders were homogenized in 100 μL water using a micro-homogenizer. Samples of homogenate were diluted 1:5 in water and precipitated with three volumes of neat acetonitrile. After centrifugation, supernatants were analyzed by LC-MS/MS. The level of test compound present in gall bladder samples was interpolated from a standard curve for each individual compound prepared in a matrix of gallbladder homogenate from vehicle treated animals.
# C57BL/6 male mice = assay: In vivo gallbladder measurement (weight) 8 h post dose; details: 30 mg/kg; for Gallbladder weight/body weight fold change over vehicle, Significance: 8 h, vs. vehicle, one-way ANOVA, Dunnett's test; for Gallbladder weight/body weight fold change over vehicle, Mean: food removed, eight hours after dosing
# Text: as §1
# human IBAT = biological target: T3, human IBAT (Homo sapiens, UniProt Q12908); assay: IBAT counter screen, [3H]taurocholic acid uptake in IBAT-transfected HEK293 cells; assay type: cell-based
# T3 construct: expressed in transfected cells; host or cells: HEK293
# T3 sequence (Q12908 1-348): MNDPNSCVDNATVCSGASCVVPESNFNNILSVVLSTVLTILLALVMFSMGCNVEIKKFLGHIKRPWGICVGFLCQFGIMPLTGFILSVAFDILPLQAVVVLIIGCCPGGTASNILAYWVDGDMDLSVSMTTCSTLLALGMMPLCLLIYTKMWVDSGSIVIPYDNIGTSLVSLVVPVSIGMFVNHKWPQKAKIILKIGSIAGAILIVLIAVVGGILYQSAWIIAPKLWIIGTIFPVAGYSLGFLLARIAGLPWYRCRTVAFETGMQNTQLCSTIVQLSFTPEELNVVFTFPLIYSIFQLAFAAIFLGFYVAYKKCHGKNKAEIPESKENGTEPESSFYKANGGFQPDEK
# Experimental: Following a 40-min incubation, the solution was removed, and the cells were washed twice with uptake buffer. Cells were lysed by addition of 20 μL 0.1% Tween 80 followed by 100 μL scintillation fluid and counted using a TopCount (Perkin Elmer).
# [4] = HEK293 cells stably expressing human TGR5, 30 min at 37 C, read-out: pEC50 Human TGR5 (converted)
# [5] = read-out: pEC50 human IBAT (converted)
# [6] = pEC50 Human TGR5, HEK293 cells stably expressing human TGR5, 30 min at 37 C
SMILES,Number of Mice with Plasma Concentration < LLOQ [1],concentration at 8 h [1],EC50 [2],EC50 (human TGR5; [4]),Number of Mice with Gallbladder Concentration < LLOQ [3],concentration at 8 h [3],EC50 (human IBAT; [5]),EC50 (human TGR5; [6]),response vs control in vivo at 30 mg/kg (total GLP-1),"Gallbladder weight/body weight fold change over vehicle, Significance (C57BL/6 male mice)","Gallbladder weight/body weight fold change over vehicle, Mean (C57BL/6 male mice)",EC50 (human IBAT)
"CN(C(=O)C1(OCc2cc(Cl)c(CCCNC(=O)NC[C@H](O)[C@@H](O)[C@H](O)[C@H](O)CO)cc2Cl)CC1)c1ccccc1OC1CC1 [Example 96, N-(2-cyclopropoxyphenyl)-1-(2,5-dichloro-4-(3-(3-((2S,3R,4R,5R)-2,3,4,5,6-pentahydroxyhexyl)ureido)propyl)benzyloxy)-N-methylcyclopropanecarboxamide]",8/8,< 2 ng/mL,< 100 nM,< 100 nM,0/8,1340 nM,,,190%,n.s.,0.8 fold change over vehicle,
"O=C(N1CCN(C2CC2)c2ccccc21)C1(NCc2cc(Cl)c(O)cc2Cl)CC1 [Example 165, (4-Cyclopropyl-3,4-dihydroquinoxalin-1(2H)-yl)(1-((2,5-dichloro-4-hydroxybenzyl)amino)cyclopropyl)methanone]",2/8,2.2 ng/mL,,< 100 nM,0/8,600 nM,,,120%,n.s.,1.5 fold change over vehicle,
"O=C(OC1(C(=O)N2CCN(C3CC3)c3ccccc32)CC1)c1cc(Cl)ccc1Cl [Example 166, 1-(4-cyclopropyl-1,2,3,4-tetrahydroquinoxaline-1-carbonyl)cyclopropyl 2,5-dichlorobenzoate]",2/8,1.4 ng/mL,,< 100 nM,8/8,< 12 nM,,,150%,n.s.,1.2 fold change over vehicle,
"O=C(N1CCN(C2CC2)c2ccccc21)C1(NCc2cc(Cl)cc(O)c2Cl)CC1 [Example 167, (4-cyclopropyl-3,4-dihydroquinoxalin-1(2H)-yl)(1-((2,5-dichloro-3-hydroxybenzyl)amino)cyclopropyl)methanone]",5/8,2.3 ng/mL,,126 to 1000 nM,0/8,3300 nM,,,130%,n.s.,1.3 fold change over vehicle,
"O=C([C@@H]1CSCN1Cc1cc(Cl)cc(O)c1Cl)N1CCN(C2CC2)c2ccccc21 [Example 169, (R)-(4-cyclopropyl-3,4-dihydroquinoxalin-1(2H)-yl)(3-(2,5-dichloro-3-hydroxybenzyl)thiazolidin-4-yl)methanone]",4/8,2.1 ng/mL,,< 100 nM,0/8,1200 nM,,,150%,,1.9 fold change over vehicle,
"Cn1c(C(=O)NC[C@H](O)[C@@H](O)[C@H](O)[C@H](O)CO)cnc1SCc1cc(Cl)c(CN2CSC[C@H]2C(=O)N2CCN(C3CC3)c3ccccc32)cc1Cl [Example 175, 2-((2,5-dichloro-4-(((R)-4-(4-cyclopropyl-1,2,3,4-tetrahydroquinoxaline-1-carbonyl)thiazolidin-3-yl)methyl)benzyl)thio)-1-methyl-N-((2S,3R,4R,5R)-2,3,4,5,6-pentahydroxyhexyl)-1H-imidazole-5-carboxamide]",7/8,,,,0/8,,> 25100 nM,,,,,
O=C(O)CNC(=O)[C@H](CSSC[C@H](NC(=O)CC[C@H](NC(=O)CCCCc1cc(Cl)c(CN2CSC[C@H]2C(=O)N2CCN(C3CC3)c3ccccc32)cc1Cl)C(=O)O)C(=O)NCC(=O)O)NC(=O)CC[C@H](NC(=O)CCCCc1cc(Cl)c(CN2CSC[C@H]2C(=O)N2CCN(C3CC3)c3ccccc32)cc1Cl)C(=O)O [Example 241],8/8,< 10 ng/mL,,,8/8,< 60 nM,,< 100 nM,,,,> 25100 nM
CN(C(=O)C1(OCc2cc(Cl)c(CCCCCNC(=O)NC[C@H](O)[C@@H](O)[C@H](O)[C@H](O)CO)cc2Cl)CC1)c1ccccc1OC1CC1 [Example 258],7/8,9.4 ng/mL,,< 100 nM,0/8,700 nM,,,110%,n.s.,1.1 fold change over vehicle,
CN(C(=O)C1(OCc2cc(Cl)c(CCCCC(=O)NC[C@H](O)[C@@H](O)[C@H](O)[C@H](O)CO)cc2Cl)CC1)c1ccccc1OC1CC1 [Example 259],6/8,1.1 ng/mL,,< 100 nM,0/8,100 nM,,,140%,n.s.,0.9 fold change over vehicle,

# Now from value to compound, other results behind:
Number of Mice with Plasma Concentration < LLOQ [1],concentration at 8 h [1],EC50 [2],EC50 (human TGR5; [4]),Number of Mice with Gallbladder Concentration < LLOQ [3],concentration at 8 h [3],EC50 (human IBAT; [5]),EC50 (human TGR5; [6]),SMILES,response vs control in vivo at 30 mg/kg (total GLP-1),"Gallbladder weight/body weight fold change over vehicle, Significance (C57BL/6 male mice)","Gallbladder weight/body weight fold change over vehicle, Mean (C57BL/6 male mice)",EC50 (human IBAT)
0/8,3.6 ng/mL,,,0/8,1300 nM,> 25100 nM,,O=C(NCCCCCc1cc(Cl)c(CN2CSC[C@H]2C(=O)N2CCN(C3CC3)c3ccccc32)cc1Cl)NC(CO)(CO)CO [Example 198],,* (* p < 0.05 vs. vehicle; One-way ANOVA followed by Dunnett's test),1.9 fold change over vehicle,
8/8,< 0.5 ng/mL,,,0/8,600 nM,> 25100 nM,< 100 nM,O=C(O)CNC(=O)CNC(=O)CNC(=O)CCCCc1cc(Cl)c(CN2CSC[C@H]2C(=O)N2CCN(C3CC3)c3ccccc32)cc1Cl [Example 228],,,,
3/8,1.2 ng/mL,,,0/8,4400 nM,> 25100 nM,,CN(C[C@H](O)[C@@H](O)[C@H](O)[C@H](O)CO)C(=O)CCCCc1cc(Cl)c(CN2CSC[C@H]2C(=O)N2CCN(C3CC3)c3ccccc32)cc1Cl [Example 238],,,,
0/8,28.1 ng/mL,,,0/8,3920 nM,> 25100 nM,< 100 nM,O=C(CCCCc1cc(Cl)c(CN2CSC[C@H]2C(=O)N2CCN(C3CC3)c3ccccc32)cc1Cl)N[C@@H](C(=O)O)[C@@H](O)[C@H](O)[C@H](O)CO [Example 240],,,,

# Source: US20150148311A1, “NON-SYSTEMIC TGR5 AGONISTS” (Ardelyx, Inc., priority 2011, published 2015)
